Measurements taken from patent publication US9676782B2, “Substituted pyrazolo[1,5-a]pyrazines as negative allosteric modulators of metabotropic glutamate receptor 3” (Vanderbilt University, priority 2014, dated 2017).
Where two headings read alike, the source gives them in different places.

Legend:
[1] = system: central mGlu2 and mGlu3 receptors; conditions: in vivo; cited from earlier work
glioma stem cells (GSC) = conditions: in vitro; cited from earlier work
C57Bl6/J mice = conditions: forced swim test; cited from earlier work
[2] = system: tumors injected into nude mice; conditions: compared with controls; cited from earlier work
Helpless (H) mice = conditions: genetic model of depression; cited from earlier work
[3] = system: Aβ-induced neurodegeneration; conditions: cited from earlier work
rat mGlu5 = rat mGlu5 (Rattus norvegicus (Rat), UniProt P31424); experiment: mGlu5 Ca2+ flux assay; assay type: cell-based; conditions: for Fold selectivity (mGlu3 vs. mGlu5): ratio of rat mGlu5 EC50 or IC50 to rat mGlu3 IC50; for EC50: read-out: rat mGlu5 EC50 or IC50
How it was run: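 Transfected cells grown overnight at 37° C/5% CO2, dye-loaded, then 5 min in assay buffer at RT before Ca2+ flux read on FDSS7000. Fluorescence as F/F0 fold over basal, normalized to maximal glutamate response; EC50 from unconstrained 4-parameter logistic fit, triplicates weighted evenly.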

rat mGlu3 = rat mGlu3 (Rattus norvegicus (Rat), UniProt P31422); experiment: mGlu3 Ca2+ flux assay; assay type: cell-based; conditions: for IC50: read-out: rat mGlu3 IC50; for remaining activity at 30 µM: amplitude of response at 30 μM test compound as % of maximal response to glutamate, read-out: rat mGlu3 Glu max (%)
How it was run: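 Cells expressing rat mGlu3 were grown overnight at 37° C. under 5% CO2, then loaded with dye. After dye removal they received 20 μL of assay buffer and sat 10 minutes at room temperature. Calcium flux was read on a Hamamatsu FDSS7000, and fluorescence was expressed as fold over basal and normalized to the maximal glutamate response.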

mGlu4 = experiment: mGlu selectivity assay: effect of a single concentration on the glutamate concentration-response curve; assay type: cell-based; conditions: tested at 10 μM
Text: (§1) Selectivity versus other mGlus can also be assessed by evaluating the effect of a single concentration of compound on the glutamate concentration-response curve (CRC) in cell lines expressing the mGlu of interest.

mGlu1 = experiment: as above; assay type: cell-based; conditions: tested at 10 μM
Text: as §1

mGlu2 = experiment: as above; assay type: cell-based; conditions: tested at 10 μM
Text: as §1

mGlu8 = experiment: as above; assay type: cell-based; conditions: tested at 10 μM
Text: as §1

mGlu7 = experiment: as above; assay type: cell-based; conditions: tested at 10 μM
Text: as §1

mGlu6 = mGlu6 (Homo sapiens (Human), UniProt O15303); experiment: as above; assay type: cell-based; conditions: tested at 10 μM
Text: as §1

cultured astrocytes = conditions: cited from earlier work
schizophrenic patients = conditions: compared to placebo, P<0.001 at week 4; cited from earlier work

Chain of rat mGlu3 (P31422 23-879): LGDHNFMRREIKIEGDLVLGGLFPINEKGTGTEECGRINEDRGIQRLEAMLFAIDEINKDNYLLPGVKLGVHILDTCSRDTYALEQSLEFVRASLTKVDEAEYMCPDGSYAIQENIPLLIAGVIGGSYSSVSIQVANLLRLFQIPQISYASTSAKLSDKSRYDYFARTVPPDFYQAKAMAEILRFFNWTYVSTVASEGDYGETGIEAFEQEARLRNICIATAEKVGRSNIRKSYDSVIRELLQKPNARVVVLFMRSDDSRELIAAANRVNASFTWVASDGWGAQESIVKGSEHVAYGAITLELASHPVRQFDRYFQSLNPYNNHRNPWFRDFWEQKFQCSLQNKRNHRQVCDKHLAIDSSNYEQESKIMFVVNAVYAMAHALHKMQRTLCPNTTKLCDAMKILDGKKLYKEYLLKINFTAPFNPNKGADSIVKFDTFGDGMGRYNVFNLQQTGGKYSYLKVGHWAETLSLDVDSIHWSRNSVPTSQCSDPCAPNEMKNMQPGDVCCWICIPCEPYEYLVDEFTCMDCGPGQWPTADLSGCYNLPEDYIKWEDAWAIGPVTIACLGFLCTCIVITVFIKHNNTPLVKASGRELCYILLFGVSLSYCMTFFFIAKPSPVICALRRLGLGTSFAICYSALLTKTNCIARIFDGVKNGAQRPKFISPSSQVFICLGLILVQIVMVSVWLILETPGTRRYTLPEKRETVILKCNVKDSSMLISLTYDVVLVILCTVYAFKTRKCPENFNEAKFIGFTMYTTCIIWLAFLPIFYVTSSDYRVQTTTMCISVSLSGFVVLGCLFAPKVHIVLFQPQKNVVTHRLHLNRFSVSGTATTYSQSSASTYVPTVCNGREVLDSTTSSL
Chain of rat mGlu5 (P31424 21-1203): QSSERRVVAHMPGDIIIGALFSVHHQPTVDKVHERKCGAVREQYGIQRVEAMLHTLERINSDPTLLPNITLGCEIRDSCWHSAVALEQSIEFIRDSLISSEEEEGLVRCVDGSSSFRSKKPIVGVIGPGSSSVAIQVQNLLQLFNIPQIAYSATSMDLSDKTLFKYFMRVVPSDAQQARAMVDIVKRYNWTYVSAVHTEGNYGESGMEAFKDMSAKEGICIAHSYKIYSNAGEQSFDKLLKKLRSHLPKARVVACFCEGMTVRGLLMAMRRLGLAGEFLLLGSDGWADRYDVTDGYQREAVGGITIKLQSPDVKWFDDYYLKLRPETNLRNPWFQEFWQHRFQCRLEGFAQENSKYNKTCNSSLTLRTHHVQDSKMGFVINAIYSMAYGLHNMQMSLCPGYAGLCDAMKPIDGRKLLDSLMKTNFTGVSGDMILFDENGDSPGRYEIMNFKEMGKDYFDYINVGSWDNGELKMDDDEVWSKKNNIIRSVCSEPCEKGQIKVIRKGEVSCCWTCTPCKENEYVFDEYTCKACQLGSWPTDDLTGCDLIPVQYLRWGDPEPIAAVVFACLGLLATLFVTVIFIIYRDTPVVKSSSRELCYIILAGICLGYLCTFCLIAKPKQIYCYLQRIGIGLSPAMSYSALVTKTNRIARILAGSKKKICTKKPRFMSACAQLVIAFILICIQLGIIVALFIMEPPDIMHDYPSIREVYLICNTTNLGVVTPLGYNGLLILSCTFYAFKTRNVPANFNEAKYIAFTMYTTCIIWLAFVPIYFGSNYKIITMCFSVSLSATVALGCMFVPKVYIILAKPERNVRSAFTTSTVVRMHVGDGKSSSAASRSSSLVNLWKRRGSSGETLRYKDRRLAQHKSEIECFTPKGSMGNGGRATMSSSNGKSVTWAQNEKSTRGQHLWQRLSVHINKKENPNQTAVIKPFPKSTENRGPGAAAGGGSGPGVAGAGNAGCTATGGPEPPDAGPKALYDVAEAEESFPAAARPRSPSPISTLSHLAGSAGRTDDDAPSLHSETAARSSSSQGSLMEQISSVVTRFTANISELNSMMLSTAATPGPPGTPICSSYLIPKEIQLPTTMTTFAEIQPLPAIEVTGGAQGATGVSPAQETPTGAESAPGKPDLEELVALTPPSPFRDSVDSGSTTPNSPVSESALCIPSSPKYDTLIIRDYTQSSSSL
Chain of mGlu6 (O15303 25-877): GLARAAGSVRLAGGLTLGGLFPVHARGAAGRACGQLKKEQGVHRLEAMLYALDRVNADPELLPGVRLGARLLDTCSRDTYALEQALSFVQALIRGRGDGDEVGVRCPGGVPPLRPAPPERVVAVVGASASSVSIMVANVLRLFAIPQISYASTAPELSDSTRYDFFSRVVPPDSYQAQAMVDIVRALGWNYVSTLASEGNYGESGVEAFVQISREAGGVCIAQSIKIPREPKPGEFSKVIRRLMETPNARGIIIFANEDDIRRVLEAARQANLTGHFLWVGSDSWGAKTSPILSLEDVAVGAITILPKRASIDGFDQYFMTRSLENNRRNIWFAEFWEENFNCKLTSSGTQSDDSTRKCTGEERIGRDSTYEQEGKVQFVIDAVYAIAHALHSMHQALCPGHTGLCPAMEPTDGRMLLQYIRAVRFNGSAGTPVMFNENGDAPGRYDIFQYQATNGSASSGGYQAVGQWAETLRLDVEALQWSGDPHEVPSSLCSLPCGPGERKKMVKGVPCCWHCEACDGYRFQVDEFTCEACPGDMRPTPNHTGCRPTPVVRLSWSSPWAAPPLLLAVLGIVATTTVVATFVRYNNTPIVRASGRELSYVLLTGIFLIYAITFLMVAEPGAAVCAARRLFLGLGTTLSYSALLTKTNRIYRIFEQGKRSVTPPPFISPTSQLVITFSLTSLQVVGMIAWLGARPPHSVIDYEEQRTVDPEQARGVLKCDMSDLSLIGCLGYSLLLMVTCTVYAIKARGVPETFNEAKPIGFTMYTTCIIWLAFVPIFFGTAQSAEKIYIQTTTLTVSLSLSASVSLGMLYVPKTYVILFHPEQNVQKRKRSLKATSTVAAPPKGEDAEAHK

N[C@](CC1c2ccccc2Oc2ccccc21)(C(=O)O)[C@H]1C[C@@H]1C(=O)O [LY341495]
reversal of hypolocomotor effect of LY379268 [1]: achieved the same result | proliferation rates (glioma stem cells (GSC)): decreased in a time-dependent manner | proportion of cells in S phase (glioma stem cells (GSC)): decreased in a time-dependent manner | immobility time (C57Bl6/J mice): dose-dependently reduced immobility time | growth rate of tumors [2]: reduced | volume of tumors [2]: reduced | activity in the tail suspension test (Helpless (H) mice): active | effect on Aβ-induced neurodegeneration [3]: prevented

COc1ccc(N(C)Cc2cc3n(n2)CCN(c2ccc(F)cc2)C3=O)cc1 [Compound 92, 5-(4-fluorophenyl)-2-(((4-methoxyphenyl)(methyl)amino)methyl)-6,7-dihydropyrazolo[1,5-a]pyrazin-4(5H)-one]
Fold selectivity (mGlu3 vs. mGlu5) (rat mGlu5): >30 | EC50 (rat mGlu5): > 30000 nM | IC50 (rat mGlu3; NAM potency, decrease of glutamate EC80 response, >30,000 = no measurable activity, >10,000 = no plateau): 986 nM | remaining activity at 30 µM (rat mGlu3): 1.39% | activity against mGlu4 (mGlu4): inactive | activity against mGlu1 (mGlu1): inactive | activity against mGlu2 (mGlu2): inactive | activity against mGlu8 (mGlu8): inactive | activity against mGlu7 (mGlu7): inactive | activity against mGlu6 (mGlu6): inactive

N[C@@]1(C(=O)O)CO[C@H]2[C@H](C(=O)O)[C@H]21 [LY379268]
sAPPα release (cultured astrocytes): incremented sAPPα release | effect on Aβ-induced neurodegeneration [3]: neuroprotective activity

Cc1cc(-c2cccc(C3=Nc4cc(C)c(C(F)(F)F)cc4NC(=O)C3)c2)cc(C)n1 [RO4491533]
reversal of hypolocomotor effect of LY379268 [1]: reversed the hypolocomotor effect | immobility time (C57Bl6/J mice): dose-dependently reduced immobility time | activity in the tail suspension test (Helpless (H) mice): active

N#CCc1ccc(NCc2cc3n(n2)CCN(c2ccc(F)cc2)C3=O)cc1 [Compound 26, 2-(4-(((5-(4-fluorophenyl)-4-oxo-4,5,6,7-tetrahydropyrazolo[1,5-a]pyrazin-2-yl)methyl)amino)phenyl)acetonitrile]
Fold selectivity (mGlu3 vs. mGlu5) (rat mGlu5): >33 | EC50 (rat mGlu5): > 30000 nM | remaining activity at 30 µM (rat mGlu3): 1.01% | IC50 (rat mGlu3): 890 nM | activity against mGlu4 (mGlu4): inactive | activity against mGlu1 (mGlu1): inactive | activity against mGlu2 (mGlu2): inactive | activity against mGlu8 (mGlu8): inactive | activity against mGlu7 (mGlu7): inactive | activity against mGlu6 (mGlu6): inactive

CCS(=O)(=O)N(Cc1cccnc1)c1cccc(-c2ccc(C#N)cc2)c1 [LY566332]
effect on Aβ-induced neurodegeneration [3]: amplified Aβ-induced neurodegeneration

N[C@@]1(C(=O)O)CS(=O)(=O)[C@H]2[C@H](C(=O)O)[C@H]21 [LY404039]
positive and negative symptoms of schizophrenia (schizophrenic patients): statistically significant improvements in both positive and negative symptoms
